Data reported in patent US5246935A, “Piperazinyl derivatives and methods of treating central nervous system ailments relating to the 5-HT2 receptor system” (Novo Nordisk A/S, priority 1990, dated 1993).

System: acetic acid-induced writhings in mice
Assay: Antagonism of Acetic Acid-Induced Writhings In Mice
Type: in vivo, mouse (NMRI)
Settings: Mus musculus, sc; s.c. 30 min before acetic acid 0.5 per cent i.p.; 50 per cent protection
Experimental: Antagonism of Acetic Acid-Induced Writhings In Mice
In mice i.p. injection of acetic acid induces a writhing syndrome which is antagonized by analgesics (Siegmund et al., 1957; Eckhardt et al., 1957).
Acetic acid 0.5 per cent is injected i.p. (0.15 ml/10 g body weight) to 6 mice (NMRI, either sex weighing 20-25 g) pretreated with physiological saline (controls) and to 6 mice pretreated with test substance. In the controls acetic acid induces a syndrome characterized by contraction of abdomen, turning of trunk and extension of hind limbs. Saline and test substances are administered s.c. 30 min. before acetic acid. The number of writhings is counted 5-15 min. after injection of acetic acid.
The activity is expressed as per cent protection: [formula]
The effect of active substances is evaluated by a dose response curve, log dose on the abscissa, and per cent protection on the ordinate. The potency is expressed as the dose (ED50 in mg/kg giving 50 per cent protection against writhings.
This test is used as a screening test for analgesics. Additional results from other screening tests are required to exclude active anti-writhing substances without analgesic effect.

COc1cc(NC(=O)OCCCN2CCN(c3ccccc3Cl)CC2)cc(OC)c1OC.Cl [Example 3, 4-(2-Chlorophenyl)-1-[3-(3,4,5-trimethoxyphenylcarbamoyloxy)propyl]piperazine, hydrochloride]
ED50: 12 mg/kg
